Reference: US8003691B2, “Antiviral and comma antibacterial pharmaceutical compositions of cantharidic anhydride and method of preparation thereof” (priority 2001, dated 2011)

What was measured:
tubercule bacillus [1] = settings: reported in literature; cited from earlier work
[2] = Solubility of cantharidic anhydride in water, fat and essential oil; type: physicochemical
Procedure: In the pharmaceutical composition of the present invention, cantharidic anhydride is dissolved in essential oils or single constituent of essential oils to form cantharidic anhydride-essential oil preparation. The cantharidic anhydride has higher solubility in essential oil. […] That is to say, concentration of cantharidic anhydride in essential oil can be 14 times larger than that in fat and more than 200 time larger than that in water.

tubercule bacillus [3] = type: cell-based
staphylococcus = type: cell-based
virus = assay: Minimum concentration for virus deactivation; type: cell-based
[4] = human, in vivo

SMILES	minimum concentration for tubercule bacillus deactivation (tubercule bacillus [1])	concentration of cantharidic anhydride in essential oil relative to that in fat ([2]; essential oil vs fat)	concentration of cantharidic anhydride in essential oil relative to that in water ([2]; essential oil vs water)	solubility in essential oil ([2]; in essential oil)	solubility in fat ([2]; in fat)	solubility of cantharidic anhydride in water ([2]; in water)	concentration in culture medium that can completely deactivate tubercule bacillus (tubercule bacillus [3])	concentration in culture medium that can completely deactivate staphylococcus (staphylococcus)	minimum concentration for virus deactivation (virus)	adverse reaction to liver and bone marrow [4]
[H]/N=C(/N)N[C@H]1[C@H](O)[C@@H](O)[C@H](O[C@@H]2O[C@@H](C)[C@](O)(C=O)[C@H]2O[C@@H]2O[C@@H](CO)[C@H](O)[C@@H](O)[C@@H]2NC)[C@@H](N/C(N)=N\[H])[C@@H]1O [streptomycin]	10 ppm	–	–	–	–	–	–	–	–	–
C[C@@]12C(=O)OC(=O)[C@]1(C)[C@H]1CC[C@@H]2O1 [cantharidic anhydride, Cantharidic anhydride]	–	14 times	more than 200 time	≤ 0.7%	0.05%	approximately 0.003%	0.01 ppm	0.01 ppm	0.000132 ppm	does not have adverse reaction to liver and bone marrow
